The source of these data is publication doi:10.1101/2024.02.28.582502, “Magnesium Transporter MgtA revealed as a Dimeric P-type ATPase” (bioRxiv, 2024).

For series [1], the target named is T1, MgtA (Escherichia coli, UniProt P0ABB8).
T1 construct: full length, 898 aa, 100 kDa; pETDuet-1-MgtAS (co-expressed with MgtS, no MgtS density seen), E. coli C43(DE3); Ni-NTA and SEC in GDN; predominantly homodimer for cryo-EM, predominantly monomer in DDM for HDX-MS
T1 sequence (P0ABB8 1-898): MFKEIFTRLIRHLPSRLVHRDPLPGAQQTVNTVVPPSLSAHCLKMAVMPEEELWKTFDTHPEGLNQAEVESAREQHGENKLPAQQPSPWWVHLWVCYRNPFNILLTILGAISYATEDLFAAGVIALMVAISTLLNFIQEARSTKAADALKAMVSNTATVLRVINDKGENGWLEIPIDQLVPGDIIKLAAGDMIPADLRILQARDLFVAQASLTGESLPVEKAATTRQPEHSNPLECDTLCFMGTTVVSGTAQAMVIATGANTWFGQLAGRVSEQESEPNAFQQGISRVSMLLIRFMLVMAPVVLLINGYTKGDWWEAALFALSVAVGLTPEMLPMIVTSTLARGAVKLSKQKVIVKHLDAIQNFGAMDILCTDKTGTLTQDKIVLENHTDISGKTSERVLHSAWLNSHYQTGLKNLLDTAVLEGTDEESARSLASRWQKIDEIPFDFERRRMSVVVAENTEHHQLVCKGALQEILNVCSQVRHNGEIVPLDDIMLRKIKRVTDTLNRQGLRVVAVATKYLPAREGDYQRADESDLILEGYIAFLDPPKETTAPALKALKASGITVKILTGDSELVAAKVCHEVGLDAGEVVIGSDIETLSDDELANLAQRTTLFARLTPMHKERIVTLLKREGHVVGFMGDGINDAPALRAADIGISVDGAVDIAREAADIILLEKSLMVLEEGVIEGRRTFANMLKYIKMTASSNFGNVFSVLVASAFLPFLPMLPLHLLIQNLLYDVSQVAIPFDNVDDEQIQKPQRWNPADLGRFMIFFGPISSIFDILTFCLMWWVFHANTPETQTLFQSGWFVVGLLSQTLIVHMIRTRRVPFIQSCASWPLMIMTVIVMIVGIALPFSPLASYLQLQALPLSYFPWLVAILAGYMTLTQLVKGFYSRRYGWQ
As to the kind of experiment: cryo-EM map density ([…] Å), ligand not modelled. The settings on record: 5 mM ADP, 5 mM MgCl2, pH 7.5, GDN, dimer, nucleotide binding site.

The target of series [2] is T1, MgtA. The experiment in a line: cryo-EM structure ([…] Å); HDX-MS. The settings on record: cryo-EM: 5 mM ATP, 5 mM MgCl2, pH 7.5, GDN, dimer, nucleotide binding site; HDX-MS: 5 mM ATP, 5 mM MgSO4, DDM, mainly monomer.
Series [3] concerns the target T1, MgtA. As to the kind of experiment: cryo-EM structure ([…] Å); HDX-MS. The settings on record: cryo-EM: 5 mM ATPγS, 5 mM MgCl2, pH 7.5, GDN, dimer, nucleotide binding site; HDX-MS: 5 mM ATPγS, 5 mM MgSO4, DDM, mainly monomer.
Series [4] deals with the molecule itself. The experiment in a line: cryo-EM structure; single-particle cryo-EM of GDN-purified MgtA, 5 mM MgCl2, 0.007% GDN; without nucleotide or with 5 mM ATP, ATPγS or ADP.

Consider `Nc1ncnc2c1ncn2[C@@H]1O[C@H](COP(=O)(O)OP(=O)(O)O)[C@@H](O)[C@H]1O` [ADP], for which, at MgtA [1], the “cryo-EM map density (3.75 Å), ligand not modelled” value is “some ADP can enter the nucleotide binding pocket but cannot be bound as tightly”.

Regarding `Nc1ncnc2c1ncn2[C@@H]1O[C@H](COP(=O)(O)OP(=O)(O)OP(=O)(O)O)[C@@H](O)[C@H]1O` [ATP], at MgtA [2], the “cryo-EM structure (3.72 Å); HDX-MS” value is “Cryo-EM structures of the MgtA dimer bound to the ligands ATP, ATPgS, and ADP”. Regarding `Nc1ncnc2c1ncn2[C@@H]1O[C@H](COP(=O)(O)OP(=O)(O)OP(O)(O)=S)[C@@H](O)[C@H]1O` [ATPγS], the “cryo-EM structure (3.87 Å); HDX-MS” value at MgtA [3] was “MgtA with ATPγS, though resolved at slightly lower resolution, was structurally similar to MgtA with ATP”.

B1: Escherichia coli magnesium transporter MgtA (from pETDuet-1-MgtAS, co-overexpressed with MgtS) (natural protein)
chain: T1 sequence (P0ABB8 1-898)
notes: MgtA, E. coli, P-type ATPase Mg2+ transporter, 100 kDa, 898 amino acids; residues from the N-terminal tail (1-36) on are modelled in the dimer structure; That the His tag stands on MgtA is inferred from its elution from Ni-NTA; also called EcMgtA; MgtAS (the purified sample); source: E. coli C43 (DE3), pETDuet-1-MgtAS, co-overexpressed with MgtS; membranes solubilised with 1% GDN (or DDM, LMNG); …
A word on the stoichiometry N: it is the number of molecules, sites or subunits per partner or assembly. With B1, the “stoichiometry N” value in series [4] was 2.
